The source of these data is patent US20230193336A1, “ENASIDENIB GLYCOSIDES AND METHODS OF TREATING DISEASES ASSOCIATED WITH ISOCITRATE DEHYDROGENASE (IDH) DYSFUNCTION” (Double Rainbow Biosciences Inc., priority 2020, published 2023).

Converted amounts (≈) assume the structure as drawn. Like-named read-outs stand apart in the source and are kept apart here.

The conditions of data set [1]: in vivo; cited from earlier work.
The next data set can be described thus: physchem. In kind it is physicochemical. The method, then:
The water solubility of enasidenib and enasidenib-O-D-glucoside was investigated by suspending excess amounts of the two compounds in 200 μl of distilled water in a microcentrifuge tube at 25° C. for 12 h. Afterwards, each sample was centrifuged at 12,000×g for 20 min. The supernatant of each sample was then filtered through a 0.45-μm membrane filter and the concentration of the compound in the supernatant, which is defined as the water-soluble component, was measured by its absorbance at 254 nm using HPLC, and its absolute solubility was calculated in reference to the concentration-absorbance standard curve.

The conditions of data set [2]: cited from earlier work.
The conditions of data set [3]: 100 mg dose; cited from earlier work.
Data set [4] relates to AML patients with an IDH2 mutation. Conditions: cited from earlier work.
For data set [5] the following is noted: clinical trials; cited from earlier work.
Data set [6] deals with IDH2 R140 and R172 mutant homodimers or heterodimers. The note with it: cited from earlier work.
For data set [7], the system named is cancer cell lines containing endogenous or exogenously expressed mutant IDH2. The note with it: cancer cell lines with endogenous or exogenously expressed mutant IDH2; cited from earlier work.
The subject of data set [8] is mouse xenograft models of AML. Conditions: cited from earlier work.
The subject of a further data set is human AML patients. Conditions: cited from earlier work.
The next data set deals with cell culture assays. Conditions: cited from earlier work.
For another data set, the target named is T1, UGT1A1 (Homo sapiens, UniProt P22309).
T1 sequence (P22309 26-533): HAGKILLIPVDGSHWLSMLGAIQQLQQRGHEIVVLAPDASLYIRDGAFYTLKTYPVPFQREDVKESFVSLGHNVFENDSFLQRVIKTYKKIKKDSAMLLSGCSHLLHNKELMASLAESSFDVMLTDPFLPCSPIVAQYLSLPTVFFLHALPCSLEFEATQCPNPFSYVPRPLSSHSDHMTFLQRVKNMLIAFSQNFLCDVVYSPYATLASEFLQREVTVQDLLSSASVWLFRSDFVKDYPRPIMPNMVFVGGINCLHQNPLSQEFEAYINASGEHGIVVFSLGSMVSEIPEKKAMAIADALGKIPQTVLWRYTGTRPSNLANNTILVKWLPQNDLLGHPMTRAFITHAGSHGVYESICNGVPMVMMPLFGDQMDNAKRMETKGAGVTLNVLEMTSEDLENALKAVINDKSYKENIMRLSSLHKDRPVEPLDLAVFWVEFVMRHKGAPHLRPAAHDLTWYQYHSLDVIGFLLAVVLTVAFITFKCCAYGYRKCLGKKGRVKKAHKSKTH
Conditions: side effect: abnormal bilirubin metabolism; cited from earlier work.

Take `C[C@@H](Nc1nc(N[C@H](C)C(F)(F)F)nc(-c2cccc(Cl)n2)n1)C(F)(F)F` [AG-881]: in [1], the blood-brain barrier penetration result is “can penetrate the blood-brain barrier”.
In the case of `CC(C)(O)CNc1nc(Nc2ccnc(C(F)(F)F)c2)nc(-c2cccc(C(F)(F)F)n2)n1` [enasidenib, Enasidenib], the concentration in solution in “physchem” (25 °C, water, thermodynamic from solid) (solubility at 12 h) came to 6 µg/mL (≈ 12.7 µM). Moreover, the values for the aqueous solubility entry in [2] and in [2] (pH 7.4 (Yen et al. 2017)) were “less than 74 μg/mL” and 23 µM (≈ 10.9 µg/mL), respectively. In addition, in data set [3], the oral bioavailability was 57%. Besides, the “AML patients with an IDH2 mutation who experienced complete remission” value in [4] (human, in vivo) is on record as 19.3%. Also, in [4] (single therapeutic, AML and relapsed/refractory-AML patients with an IDH2 mutation), the overall response rate is 41%. In addition, the “patients who completely discontinued enasidenib” value in data set [5] is reported as 17%. For the same compound, in [5], the “patients who had to stop taking the drug as a result of adverse events” value is 43%. For the same compound, the “patients with serious adverse events” value in [5] is given as “approximately 77%”. In data set [6] (R140 and R172 mutant homodimers or heterodimers versus wild type IDH2), the “lower inhibitory concentration for mutant IDH2 compared to the wild type IDH2” value is given as “approximately 40 fold”. Besides, the inhibition kinetics entry in data set [6] (kinetics assays) is listed as “slow on/slow off tight binding inhibition kinetics”. For the same compound, the 2-HG concentration entry (in data set [7]; in data set [8]; with human AML patients) was “reduced the 2-HG concentration” throughout. Besides, the differentiation result in the data set on cell culture assays is reported as “induced differentiation”. The UGT1A1 inhibition entry at UGT1A1 is recorded as “inhibition of UGT1A1”.
As for `CC(C)(CNc1nc(Nc2ccnc(C(F)(F)F)c2)nc(-c2cccc(C(F)(F)F)n2)n1)OC1O[C@H](CO)[C@@H](O)[C@H](O)[C@H]1O` (stereo partly drawn) [enasidenib-O-D-glucoside], in the data set “physchem”, the water solubility worked out at 40 µg/mL (≈ 62.9 µM) and the “water solubility relative to enasidenib” value is 7 times.

As a reminder, the solubility is how much of the substance goes into solution per volume. What is called aqueous solubility is the dissolved amount per volume that the medium holds.
